Tests used:
Assay type in all cases: cell-based
Microsporum canis = assay: Antifungal activity in vitro, resazurin growth inhibition: Microsporum canis (B68128); details: for IC50: read-out: Inf. B: Microsporum canis B68128, pIC50 (converted)
In short: (§1)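 Resazurin conversion to fluorescent resorufin (ex 550/em 590 nm) served as the growth readout. Compounds spanned 2- or 4-fold serial dilutions with 64 μM top in-test concentration; inoculum 10^3 cfu per well in MOPS-buffered RPMI-1640 (pH 7.0, 2% glucose). Incubation species-dependent, dermatophytes at 27° C. for ≥1 week.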

Rhizomucor miehei = assay: Antifungal activity in vitro, resazurin growth inhibition: Rhizomucor miehei (IHEM13391); details: for IC50: read-out: Inf. K: Rhizomucor miehei IHEM13391, pIC50 (converted)
In short: (§2)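 Compound dilutions, with 64 μM as the highest in-test level, are spotted onto plates, then an inoculum of 10^3 cfu in RPMI-1640 plus 2% glucose (MOPS, pH 7.0±0.1) is added. Plates are incubated at species-dependent time and temperature, up to a week or more at 27° C. for dermatophytes.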

Sporothrix schenkii = assay: Antifungal activity in vitro, resazurin growth inhibition: Sporothrix schenkii (B62482); details: for IC50: read-out: Inf. A: Sporothrix schenkii B62482, pIC50 (converted)
In short: as §2

Rhizopus oryzae = assay: Antifungal activity in vitro, resazurin growth inhibition: Rhizopus oryzae (IHEM5223); details: for IC50: Rhizopus arrhizus, read-out: Inf. J: Rhizopus oryzae IHEM5223, pIC50 (converted)
In short: as §2

Aspergillus fumigatus = assay: Antifungal activity in vitro, resazurin growth inhibition: Aspergillus fumigatus (B42928); details: for IC50: read-out: Inf. E: Aspergillus fumigatus B42928, pIC50 (converted)
In short: as §2

Scedosporium apiospermum = assay: Antifungal activity in vitro, resazurin growth inhibition: Scedosporium apiospermum (IHEM3817); details: for IC50: read-out: Inf. H: Scedosporium apiospermum IHEM3817, pIC50 (converted)
In short: as §2

Trichophyton rubrum = assay: Antifungal activity in vitro, resazurin growth inhibition: Trichophyton rubrum (B68183); details: for IC50: read-out: Inf. C: Trichophyton rubrum B68183, pIC50 (converted)
In short: as §1

[1] = system: Trichophyton mentagrophytes; assay: Antifungal activity in vitro, resazurin growth inhibition: Trichophyton mentagrophytes (B70554); details: for IC50: read-out: Inf. G: Trichophyton mentagrophytes B70554, pIC50 (converted)
In short: as §1

Scedosporium prolificans = assay: Antifungal activity in vitro, resazurin growth inhibition: Scedosporium prolificans (IHEM21157); details: for IC50: Lomentospora prolificans, read-out: Inf. I: Scedosporium prolificans IHEM21157, pIC50 (converted)
In short: as §2

Candida parapsilosis = assay: Antifungal activity in vitro, resazurin growth inhibition: Candida parapsilosis (B66126); details: for IC50: Lodderomyces parapsilosis, read-out: Inf. D: Candida parapsilosis B66126, pIC50 (converted)
In short: as §2

Cryptococcus neoformans = assay: Antifungal activity in vitro, resazurin growth inhibition: Cryptococcus neoformans (B66663); details: for IC50: read-out: Inf. F: Cryptococcus neoformans B66663, pIC50 (converted)
In short: as §2

SMILES | Inf. B: Microsporum canis B68128, pIC50 (Microsporum canis) | Inf. K: Rhizomucor miehei IHEM13391, pIC50 (Rhizomucor miehei) | Inf. A: Sporothrix schenkii B62482, pIC50 (Sporothrix schenkii) | Inf. J: Rhizopus oryzae IHEM5223, pIC50 (Rhizopus oryzae) | Inf. E: Aspergillus fumigatus B42928, pIC50 (Aspergillus fumigatus) | Inf. H: Scedosporium apiospermum IHEM3817, pIC50 (Scedosporium apiospermum) | Inf. C: Trichophyton rubrum B68183, pIC50 (Trichophyton rubrum) | Inf. G: Trichophyton mentagrophytes B70554, pIC50 [1] | Inf. I: Scedosporium prolificans IHEM21157, pIC50 (Scedosporium prolificans) | Inf. D: Candida parapsilosis B66126, pIC50 (Candida parapsilosis) | Inf. F: Cryptococcus neoformans B66663, pIC50 (Cryptococcus neoformans) | also measured
CC(F)(F)c1ccc(C2=NCc3c(Cl)cc(Cl)cc3-n3cccc32)cn1 [Compound 84] | 6.24 | <4.19 | 5.65 | <4.19 | 6.24 | 5.31 | 6.26 | 5.88 | <4.19 | 5.44 | 5.88 | 
Fc1cc(F)c2c(c1)-n1cccc1C(c1ccc3sccc3c1)=NC2 [Compound 176] | 6.89 | <4.19 | 5.70 | <4.19 | 6.49 | 5.54 | 6.90 | 6.57 | 6.15 | 6.03 | 6.49 | 
Clc1ccc(C2=NCc3c(Cl)cccc3-n3cccc32)cn1 [Compound 77] | 5.67 | <4.19 | 4.52 | <4.19 | 6.05 | 4.88 | 6.22 | 5.71 | 5.57 | 4.69 | 5.03 | 
COc1ccc2oc(C3=NCc4c(Cl)cccc4-n4cccc43)cc2c1 [Compound 146] | 5.76 | <4.19 | <4.19 | <4.19 | <4.19 | <4.19 | 6.19 | 5.44 | 4.80 | <4.19 | <4.19 | 
Cc1cccc2c1CN=C(c1cc3ccccc3o1)c1cccn1-2 [Compound 116] | 7.39 | 4.81 | 5.84 | <4.19 | 6.26 | 6.22 | 7.52 | 6.83 | 6.46 | 4.70 | 5.65 | 
c1ccc2c(c1)CN=C(c1cc3ccccc3o1)c1cccn1-2 [Compound 115] | 7.02 | 4.88 | 5.70 | <4.19 | 6.82 | <4.19 | 7.47 | 7.28 | 5.98 | 4.25 | 5.70 | 
Cc1cccc2c1-n1cccc1C(c1cc3ccccc3s1)=NC2 [Compound 164] | 5.86 | 5.15 | 5.40 | <4.19 | 5.70 | 5.66 | 6.51 | 6.29 | 6.44 | 4.97 | 5.85 | 
Clc1cccc2c1CN=C(c1cnc3occc3c1)c1cccn1-2 [Compound 161] | 5.96 | <4.19 | 5.02 | <4.19 | 5.04 | 6.47 | 6.12 | 5.40 | 6.27 | <4.19 | 4.56 | 
Clc1ccc2oc(C3=NCc4c(Cl)cccc4-n4cccc43)cc2c1 [Compound 121] | 6.96 | 5.58 | 6.11 | 5.77 | 5.52 | 5.97 | 6.82 | 6.86 | 6.15 | <4.19 | <4.19 | 
Clc1cccc2c1CN=C(c1ccc3sccc3c1)c1cccn1-2 [Compound 9] |  |  |  |  |  |  |  |  |  |  |  | IC50 (Microsporum canis): 107 nM; IC50 (Rhizomucor miehei): 2340 nM; IC50 (Sporothrix schenkii): 1660 nM; IC50 (Rhizopus oryzae): > 64600 nM; IC50 (Aspergillus fumigatus): 12.9 nM; IC50 (Scedosporium apiospermum): 550 nM; IC50 (Trichophyton rubrum): 36.3 nM; IC50 [1]: 97.7 nM; IC50 (Scedosporium prolificans): 39.8 nM; IC50 (Candida parapsilosis): 603 nM; IC50 (Cryptococcus neoformans): 646 nM
Cc1ccc2oc(C3=NCc4c(Cl)cccc4-n4cccc43)cc2c1 [Compound 134] | 6.68 | <4.19 | 4.50 | <4.19 | 5.66 | <4.19 | 7.16 | 6.66 | 6.48 | 4.54 | <4.19 | 
Cc1cccc2c1CN=C(c1cc3ccccc3s1)c1cccn1-2 [Compound 2] |  |  |  |  |  |  |  |  |  |  |  | IC50 (Microsporum canis): 331 nM; IC50 (Rhizomucor miehei): > 64600 nM; IC50 (Sporothrix schenkii): 646 nM; IC50 (Rhizopus oryzae): > 64600 nM; IC50 (Aspergillus fumigatus): 2000 nM; IC50 (Scedosporium apiospermum): 525 nM; IC50 (Trichophyton rubrum): 166 nM; IC50 [1]: 427 nM; IC50 (Scedosporium prolificans): 1620 nM; IC50 (Candida parapsilosis): > 64600 nM; IC50 (Cryptococcus neoformans): 2000 nM
COc1cccc2cc(C3=NCc4c(C)cccc4-n4cccc43)oc12 [Compound 144] | 6.49 | 4.44 | 5.69 | <4.19 | 5.62 | 4.71 | >8.41 | 7.45 | 6.26 | 4.57 | 5.31 | 
Clc1cccc2c1CN=C(c1ccc3ccoc3c1)c1cccn1-2 [Compound 150] | 6.14 | <4.19 | 5.52 | <4.19 | 6.00 | <4.19 | 8.25 | 6.15 | 5.93 | 4.68 | 4.57 | 
Clc1ccc2c(c1)-n1cccc1C(c1ccc3ncsc3c1)=NC2 [Compound 185] | 6.39 | <4.19 | 5.28 | <4.19 | 6.29 | 4.41 | 6.73 | 6.04 | 5.16 | 4.23 | 6.33 | 
Clc1cc(Cl)c2c(c1)-n1cccc1C(c1cc3ccccc3s1)=NC2 [Compound 168] | 4.96 | <4.19 | 6.22 | <4.19 | 6.73 | <4.19 | 6.18 | 6.40 | 6.48 | <4.19 | 6.41 | 
